Measured values as given in ChEMBL document CHEMBL3774353, “Efficacy of peptide nucleic acid and selected conjugates against specific cellular pathologies of amyotrophic lateral sclerosis” (Bioorg Med Chem, 2016).

Target: Superoxide dismutase [Cu-Zn] (Homo sapiens) (UniProt P00441)
Experiment: Binding affinity to human EGFP-tagged SOD1 A4V mutant mRNA expressed in mouse Neuro2a cells assessed as reduction in cells bearing inclusions at 25 uM measured 72 hrs post transfection by Hoechst33342 staining-based epifluorescence microscopic analysis (reference value: 19 to 21%)
Format: cell-based
Parameters: scale not given: the % may be the effect or the level left

Chain of Superoxide dismutase [Cu-Zn] (Homo sapiens) (P00441 whole entry): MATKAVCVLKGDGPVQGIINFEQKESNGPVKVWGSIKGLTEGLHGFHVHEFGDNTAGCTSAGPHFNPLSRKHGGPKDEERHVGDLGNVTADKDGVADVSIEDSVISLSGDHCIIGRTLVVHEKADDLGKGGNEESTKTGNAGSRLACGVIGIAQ

Question: Which Activity does the source give for `CC(=O)Oc1c(C)c(C)c2c(c1Cn1cc(CCC(=O)NCCN(CC(=O)NCCN(CC(=O)NCCN(CC(=O)NCCN(CC(=O)NCCN(CC(=O)NCCN(CC(=O)NCCN(CC(=O)NCCN(CC(=O)NCCN(CC(N)=O)C(=O)Cn3cnc4c(=O)[nH]c(N)nc43)C(=O)Cn3ccc(N)nc3=O)C(=O)Cn3cnc4c(N)ncnc43)C(=O)Cn3ccc(N)nc3=O)C(=O)Cn3cnc4c(=O)[nH]c(N)nc43)C(=O)Cn3cnc4c(N)ncnc43)C(=O)Cn3ccc(N)nc3=O)C(=O)Cn3cc(C)c(=O)[nH]c3=O)C(=O)Cn3cc(C)c(=O)[nH]c3=O)nn1)CCC(C)(CCCC(C)CCCC(C)CCCC(C)C)O2` (centres undefined) here?
Answer: 17%

Question: For `Cc1c(C)c2c(c(C)c1O)CCC(C)(C(=O)NCCN(CC(=O)NCCN(CC(=O)NCCN(CC(=O)NCCN(CC(=O)NCCN(CC(=O)NCCN(CC(=O)NCCN(CC(=O)NCCN(CC(=O)NCCN(CC(N)=O)C(=O)Cn1cnc3c(=O)[nH]c(N)nc31)C(=O)Cn1ccc(N)nc1=O)C(=O)Cn1cnc3c(N)ncnc31)C(=O)Cn1ccc(N)nc1=O)C(=O)Cn1cnc3c(=O)[nH]c(N)nc31)C(=O)Cn1cnc3c(N)ncnc31)C(=O)Cn1ccc(N)nc1=O)C(=O)Cn1cc(C)c(=O)[nH]c1=O)C(=O)Cn1cc(C)c(=O)[nH]c1=O)O2` (centres undefined), which Activity is on record?
Answer: 16%

Question: Which Activity does the source give for `CCOC(=O)C1(C)CCc2c(Cn3cc(CCC(=O)NCCN(CC(=O)NCCN(CC(=O)NCCN(CC(=O)NCCN(CC(=O)NCCN(CC(=O)NCCN(CC(=O)NCCN(CC(=O)NCCN(CC(=O)NCCN(CC(N)=O)C(=O)Cn4cnc5c(=O)[nH]c(N)nc54)C(=O)Cn4ccc(N)nc4=O)C(=O)Cn4cnc5c(N)ncnc54)C(=O)Cn4ccc(N)nc4=O)C(=O)Cn4cnc5c(=O)[nH]c(N)nc54)C(=O)Cn4cnc5c(N)ncnc54)C(=O)Cn4ccc(N)nc4=O)C(=O)Cn4cc(C)c(=O)[nH]c4=O)C(=O)Cn4cc(C)c(=O)[nH]c4=O)nn3)c(OC(C)=O)c(C)c(C)c2O1` (centres undefined) here?
Answer: 14%

Question: `O=C(CS)N[C@@H]1CCCC[C@H]1NC(=O)CS` (racemic) was tested. Which Activity did it give?
Answer: 14%
